Data as given in ChEMBL document CHEMBL3885881, “DrugMatrix”.

Species: Rattus norvegicus
Test: DrugMatrix - Regimen: Daily Repeat
Assay type: toxicity, organism-based, Sprague-Dawley
Parameters: regimen Daily Repeat, gender Male, age 6-8 weeks
Details: in vivo, po, 2000 mg/kg, route oral GAVAGE, dose level High, vehicle 100 % WATER; for ABSOLUTE BASOPHIL / ABSOLUTE EOSINOPHIL / ABSOLUTE LYMPHOCYTE / ABSOLUTE MONOCYTE / ABSOLUTE SEGMENTED NEUTROPHIL / BASOPHIL / EOSINOPHIL / ERYTHROCYTE COUNT / HEMATOCRIT / HEMOGLOBIN / LEUKOCYTE COUNT / LYMPHOCYTE / MEAN CORPUSCULAR HEMOGLOBIN / MEAN CORPUSCULAR HEMOGLOBIN CONCENTRATION / MEAN CORPUSCULAR VOLUME / MONOCYTE / NEUTROPHIL / NUCLEATED RED BLOOD CELLS / PLATELET COUNT: tissue Blood; for ALANINE AMINOTRANSFERASE / ALBUMIN / ALKALINE PHOSPHATASE / ASPARTATE AMINOTRANSFERASE / BLOOD UREA NITROGEN / CARBON DIOXIDE / CHLORIDE / CHOLESTEROL / CREATINE PHOSPHOKINASE / CREATININE / GLUCOSE / LACTATE DEHYDROGENASE / LIPASE / PHOSPHORUS / POTASSIUM / SODIUM / TOTAL BILIRUBIN / TOTAL PROTEIN / URIC ACID: tissue Plasma

O=C1O[C@H]([C@@H](O)CO)C(O)=C1O [ASCORBIC ACID]
ABSOLUTE BASOPHIL (72 h, time 3 day): 0 CELLS/uL | ABSOLUTE EOSINOPHIL (72 h, time 3 day): 0 CELLS/uL | ABSOLUTE LYMPHOCYTE (72 h, time 3 day): 11911.67 CELLS/uL | ABSOLUTE MONOCYTE (72 h, time 3 day): 70.67 CELLS/uL | ABSOLUTE SEGMENTED NEUTROPHIL (72 h, time 3 day): 1384.33 CELLS/uL | BASOPHIL (72 h, time 3 day): 0% | EOSINOPHIL (72 h, time 3 day): 0% | ERYTHROCYTE COUNT (72 h, time 3 day): 5.18 x10E6/uL | HEMATOCRIT (72 h, time 3 day): 32.77% | HEMOGLOBIN (72 h, time 3 day): 13.1 G/DL | LEUKOCYTE COUNT (72 h, time 3 day): 13.37 x10E3/uL | LYMPHOCYTE (72 h, time 3 day): 89.33% | MEAN CORPUSCULAR HEMOGLOBIN (72 h, time 3 day): 25.27 pg | MEAN CORPUSCULAR HEMOGLOBIN CONCENTRATION (72 h, time 3 day): 39.97 G/DL | MEAN CORPUSCULAR VOLUME (72 h, time 3 day): 63.27 fL | MONOCYTE (72 h, time 3 day): 0.67% | NEUTROPHIL (72 h, time 3 day): 10% | NUCLEATED RED BLOOD CELLS (72 h, time 3 day): 0 /100WBC | PLATELET COUNT (72 h, time 3 day): 1123.33 x10E3/uL | ALANINE AMINOTRANSFERASE (72 h, time 3 day): 37.67 u/L | ALBUMIN (72 h, time 3 day): 4.03 G/DL | ALKALINE PHOSPHATASE (72 h, time 3 day): 334 u/L | ASPARTATE AMINOTRANSFERASE (72 h, time 3 day): 76.33 u/L | BLOOD UREA NITROGEN (72 h, time 3 day): 15.33 mg/dL | CARBON DIOXIDE (72 h, time 3 day): 32.33 mmol/L | CHLORIDE (72 h, time 3 day): 101.67 MEQ/L | CHOLESTEROL (72 h, time 3 day): 63.67 mg/dL | CREATINE PHOSPHOKINASE (72 h, time 3 day): 214.33 u/L | CREATININE (72 h, time 3 day): 0.17 mg/dL | GLUCOSE (72 h, time 3 day): 146.33 mg/dL | LACTATE DEHYDROGENASE (72 h, time 3 day): 137.67 u/L | LIPASE (72 h, time 3 day): 9 u/L | PHOSPHORUS (72 h, time 3 day): 11.5 mg/dL | POTASSIUM (72 h, time 3 day): 6.65 MEQ/L | SODIUM (72 h, time 3 day): 144.3 MEQ/L | TOTAL BILIRUBIN (72 h, time 3 day): 0.2 mg/dL | TOTAL PROTEIN (72 h, time 3 day): 5.63 G/DL | URIC ACID (72 h, time 3 day): 1.4 mg/dL | ABSOLUTE BASOPHIL (120 h, time 5 day): 0 CELLS/uL | ABSOLUTE EOSINOPHIL (120 h, time 5 day): 0 CELLS/uL | ABSOLUTE LYMPHOCYTE (120 h, time 5 day): 16297.33 CELLS/uL | ABSOLUTE MONOCYTE (120 h, time 5 day): 372.33 CELLS/uL | ABSOLUTE SEGMENTED NEUTROPHIL (120 h, time 5 day): 863.67 CELLS/uL | BASOPHIL (120 h, time 5 day): 0% | EOSINOPHIL (120 h, time 5 day): 0% | ERYTHROCYTE COUNT (120 h, time 5 day): 5.49 x10E6/uL | HEMATOCRIT (120 h, time 5 day): 35.9% | HEMOGLOBIN (120 h, time 5 day): 14.2 G/DL | LEUKOCYTE COUNT (120 h, time 5 day): 17.53 x10E3/uL | LYMPHOCYTE (120 h, time 5 day): 93.33% | MEAN CORPUSCULAR HEMOGLOBIN (120 h, time 5 day): 25.9 pg | MEAN CORPUSCULAR HEMOGLOBIN CONCENTRATION (120 h, time 5 day): 39.53 G/DL | MEAN CORPUSCULAR VOLUME (120 h, time 5 day): 65.47 fL | MONOCYTE (120 h, time 5 day): 2% | NEUTROPHIL (120 h, time 5 day): 4.67% | NUCLEATED RED BLOOD CELLS (120 h, time 5 day): 0.33 /100WBC | PLATELET COUNT (120 h, time 5 day): 1195.67 x10E3/uL | ALANINE AMINOTRANSFERASE (120 h, time 5 day): 48 u/L | ALBUMIN (120 h, time 5 day): 4.23 G/DL | ALKALINE PHOSPHATASE (120 h, time 5 day): 355.33 u/L | ASPARTATE AMINOTRANSFERASE (120 h, time 5 day): 75.33 u/L | BLOOD UREA NITROGEN (120 h, time 5 day): 14.67 mg/dL | CARBON DIOXIDE (120 h, time 5 day): 33.67 mmol/L | CHLORIDE (120 h, time 5 day): 99.67 MEQ/L | CHOLESTEROL (120 h, time 5 day): 70.67 mg/dL | CREATINE PHOSPHOKINASE (120 h, time 5 day): 260 u/L | CREATININE (120 h, time 5 day): 0.26 mg/dL | GLUCOSE (120 h, time 5 day): 135.67 mg/dL | LACTATE DEHYDROGENASE (120 h, time 5 day): 215 u/L | LIPASE (120 h, time 5 day): 10.67 u/L | PHOSPHORUS (120 h, time 5 day): 11.83 mg/dL | POTASSIUM (120 h, time 5 day): 6.61 MEQ/L | SODIUM (120 h, time 5 day): 144.07 MEQ/L | TOTAL BILIRUBIN (120 h, time 5 day): 0.27 mg/dL | TOTAL PROTEIN (120 h, time 5 day): 6.03 G/DL | URIC ACID (120 h, time 5 day): 1.37 mg/dL
